Measurements taken from patent US20170143701A1, “CARBOHYDRATE METABOLISM-AMELIORATING AGENT” (SUNTORY HOLDINGS LIMITED, priority 2014, published 2017).

Tested on: C57/BL6J mice
Assay: In vivo plasma GLP-1 level-increasing action: plasma active GLP-1 level (ELISA) after oral administration
Settings: 10 mg/kg oral; for Significant difference (p < 0.05) vs control group, plasma active GLP-1 level: 30 minutes, Student's t-test; for Plasma active GLP-1 level (relative value to control group as 100), average value: blood 30 minutes after, 0.5% CMC-Na group = 100
Description: Seven-week-old male C57/BL6J mice were purchased from CLEA Japan, Inc. for use, and they were subjected to an experiment after 1 week of a habituation period.
After the habituation period, the mice were subjected to 5.5 hours of food deprivation and 2 hours of water deprivation. Thereafter, a cyclic dipeptide dissolved or suspended in a 0.5% CMC-Na aqueous solution in 10 mg/kg was orally administered to each mouse forcibly. After 30 minutes, the blood was collected from the abdominal vena cava under anesthesia, and 1 μL of heparin sodium and 1 μL of 10 mM Sitagliptin phosphate were added to each collected blood, which was then subjected to centrifugation at 8000 rpm for 10 minutes to recover the plasma, and the plasma active GLP-1 level was measured by using the ELISA kit. In the analysis, the active GLP-1 level for a group administered with 0.5% CMC-Na aqueous solution was defined as 100, and relative values thereto were used.

SMILES	Significant difference (p < 0.05) vs control group, plasma active GLP-1 level (Table 9, Experiment 4)	Plasma active GLP-1 level (relative value to control group as 100), average value (Table 9, Experiment 4)	Significant difference (p < 0.05) vs control group, plasma active GLP-1 level (Table 8, Experiment 3)	Plasma active GLP-1 level (relative value to control group as 100), average value (Table 8, Experiment 3)	also measured
O=C1CNC(=O)[C@H](Cc2ccccc2)N1 [compound 8, Cyclo(Gly-Phe)]	No	85			
CC(C)[C@@H]1NC(=O)[C@H](C(C)C)NC1=O [compound 11, Cyclo(Val-Val)]	No	100			
CSCCC1NC(=O)C(CCSC)NC1=O (stereo not shown) [compound 12, Cyclo(Met-Met)]	No	110			
O=C1NC(Cc2ccccc2)C(=O)N2CCCC12 (stereo not shown) [compound 13, Cyclo(Phe-Pro)]	No	120			
CC[C@H](C)[C@@H]1NC(=O)[C@H]([C@@H](C)CC)NC1=O [compound 14, Cyclo(Ile-Ile)]	No	105			
CC(C)C[C@@H]1NC(=O)[C@H](CC(C)C)NC1=O [compound 15, Cyclo(Leu-Leu)]	No	95			
CC(C)C[C@@H]1NC(=O)[C@H](Cc2ccccc2)NC1=O [compound 16, Cyclo(Leu-Phe)]	No	105			
O=C1N[C@@H](Cc2ccccc2)C(=O)N[C@H]1Cc1ccccc1 [compound 17, cyclo-phenylalanyl-phenylalanine]			Yes	203	
O=C1N[C@@H](Cc2c[nH]c3ccccc23)C(=O)N[C@H]1Cc1ccc(O)cc1 [compound 22, cyclo-tryptophanyl-tyrosine]			Yes	203	
O=C1CNC(=O)C(Cc2c[nH]c3ccccc23)N1 (stereo not shown) [compound 26, cyclo-glycyl-tryptophan]			Yes	264	
O=C1NC(Cc2c[nH]c3ccccc23)C(=O)NC1Cc1ccccc1 (stereo not shown) [compound 28, cyclo-phenylalanyl-tryptophan]			Yes	255	
O=C1N[C@@H](Cc2ccc(O)cc2)C(=O)N[C@H]1CO [compound 29, Cyclo(Ser-Tyr)]	No	95			
O=C1N[C@@H](Cc2ccc(O)cc2)C(=O)N2CCC[C@@H]12 [compound 30, Cyclo(Pro-Tyr)]	No	95			
O=C(O)C[C@@H]1NC(=O)[C@H](Cc2ccccc2)NC1=O [compound 33, Cyclo(Asp-Phe)]	No	90			
O=C1N[C@@H](Cc2cnc[nH]2)C(=O)N[C@H]1Cc1ccccc1 [compound 38, cyclo-histidyl-phenylalanine]			Yes	264	
CC(C)C[C@@H]1NC(=O)[C@H](Cc2c[nH]c3ccccc23)NC1=O [compound 39, cyclo-leucyl-tryptophan]			Yes	229	
O=C1CNC(=O)C(Cc2ccc(O)cc2)N1 (stereo not shown) [compound 42, Cyclo(Tyr-Gly)]					Significant difference (p < 0.05) vs control group, plasma active GLP-1 level (Table 10, Experiment 5): No; Plasma active GLP-1 level (relative value to control group as 100), average value (Table 10, Experiment 5): 97
CC(C)C[C@@H]1NC(=O)[C@H](C)NC1=O [compound 44, cyclo-alanyl-leucine]			Yes	255	
O=C1N[C@@H](Cc2ccc(O)cc2)C(=O)N[C@H]1Cc1ccc(O)cc1 [compound 49, Cyclo(Tyr-Tyr)]					Significant difference (p < 0.05) vs control group, plasma active GLP-1 level (Table 10, Experiment 5): No; Plasma active GLP-1 level (relative value to control group as 100), average value (Table 10, Experiment 5): 100
CC1NC(=O)C(Cc2ccccc2)NC1=O (stereo not shown) [compound 52, Cyclo(Ala-Phe)]					Significant difference (p < 0.05) vs control group, plasma active GLP-1 level (Table 10, Experiment 5): No; Plasma active GLP-1 level (relative value to control group as 100), average value (Table 10, Experiment 5): 93
